The subject of the experiment is IMR32 cells. Briefly: Amyloid β protein in culture supernatant of IMR32 cells after addition of urotensin II, by enzyme immunoassay. To be noted: cultured 24 hours. The class given is cell-based. Here is the method:
Test compound 1 was added to IMR32 cells at various concentrations (μM) 10 minutes before addition of 10 nM of urotensin II. Then, urotensin II was added in the presence or absence of test compound 1, the mixture was cultured for 24 hours, and the amount of amyloid β protein in the supernatant of the culture was determined by enzyme immunoassay (Biochemistry, Vol.34, No.32, pp. 10272-10278, (1995)). Test compound 2 as described hereinafter (the compound of Synthesis Example 5) was used and added at a concentration of 1 nM, and the amount of amyloid β protein was determined in the same manner as that of Experimental Example 1. Namely, IMR32 cells were used and test compound 2 was added at a concentration of 1 nM 10 minutes before addition of 10 nM of urotensin II. After addition of urotensin II, the mixture was cultured for 24 hours and the amount of amyloid β protein in the supernatant of the culture was determined by enzyme immunoassay.

Results on two compounds are retold here after patent publication US20030207863A1, “Preventives and remedies for central nervous system diseases” (priority 2000, published 2003).

With `Cc1ccc2nc3c(c(N)c2c1)CCN3Cc1ccccc1` [test compound 1], the “suppression of increase in the selective secretion of amyloid β40 by urotensin II” value (test compound at various concentrations (μM) added 10 minutes before 10 nM urotensin II, FIG. 1) is listed as “concentration-dependently suppressed”.

As to `Cl.NS(=O)(=O)c1ccc(CCN(Cc2cccc(-c3cccc(C(=O)NCCN4CCCC4)c3)c2)C(=O)CCCc2ccccc2)cc1` [test compound 2, 3′-{({2-[4-(Aminosulfonyl)phenyl]ethyl}[4-phenylbutanoyl]amino)methyl}-N-[2-(1-pyrrolidinyl)ethyl][1,1′-biphenyl]-3-carboxamide Hydrochloride], the “suppression of increase of amyloid β40 by urotensin II” value (test compound at 1 nM added 10 minutes before 10 nM urotensin II, FIG. 2) is “completely suppressed”.
